{"source": "patent US7582677B2", "about": "“Lignan formulations” (Hormos Medical Corp., priority 2002, dated 2009)", "tested_on": "microsomal lipids", "test": "Inhibition of lipid peroxidation (microsomal lipids, tert-butylhydroperoxide initiated, chemiluminescence detection)", "assay_type": "biochemical", "conditions": "peroxidation of microsomal lipids initiated by tert-butylhydroperoxide", "description": "In this model, lignan compounds were compared to the well known, potent antioxidant Trolox, which is a water-soluble derivative of vitamin E.", "data": [{"compound": "COc1cc(C[C@H]2C(=O)OC[C@@H]2[C@H](O)c2ccc(O)c(OC)c2)ccc1O", "note": "[Hydroxymatairesinol (HMR), Hydroxymatairesinol]", "values": [{"measurement": "IC50", "value": 0.06, "unit": "µM"}]}, {"compound": "COc1cc(C[C@H]2CO[C@H](c3ccc(O)c(OC)c3)[C@H]2CO)ccc1O", "note": "[Lariciresinol]", "values": [{"measurement": "IC50", "value": 0.07, "unit": "µM"}]}, {"compound": "CCCC(=O)Oc1ccc(C[C@H]2COC(=O)[C@@H]2Cc2ccc(OC(=O)CCC)c(OC)c2)cc1OC", "note": "[Matairesinoibutyrate]", "values": [{"measurement": "IC50", "value": 0.35, "unit": "µM"}]}, {"compound": "COc1cc(C[C@H]2COC(=O)[C@@H]2Cc2ccc(O)c(OC)c2)ccc1O", "note": "[Matairesinol]", "values": [{"measurement": "IC50", "value": 0.054, "unit": "µM"}]}, {"compound": "COc1cc(CC2COC(=O)C2(O)Cc2ccc(O)c(OC)c2)ccc1O", "note": "(centres unmarked) [Nortrachelogenin]", "values": [{"measurement": "IC50", "value": 0.15, "unit": "µM"}]}, {"compound": "COc1cc(CC2C(=O)OCC2C(=O)c2ccc(O)c(OC)c2)ccc1O", "note": "(centres unmarked) [Oxomatairesinol]", "values": [{"measurement": "IC50", "value": 0.11, "unit": "µM"}]}, {"compound": "COc1cc(C[C@@H](CO)[C@H](CO)Cc2ccc(O)c(OC)c2)ccc1O", "note": "[Secoisolariciresinol]", "values": [{"measurement": "IC50", "value": 0.09, "unit": "µM"}]}, {"compound": "Cc1c(C)c2c(c(C)c1O)CCC(C)(C(=O)O)O2", "note": "(centres unmarked) [Trolox, reference compound]", "values": [{"measurement": "IC50", "value": 0.22, "unit": "µM"}]}, {"compound": "HMR-benzoate", "values": [{"measurement": "IC50", "value": 0.12, "unit": "µM"}]}, {"compound": "HMR-butyrate", "values": [{"measurement": "IC50", "value": 0.1, "unit": "µM"}]}, {"compound": "α-Conidendrin", "values": [{"measurement": "IC50", "value": 0.067, "unit": "µM"}]}]}
